Source: ChEMBL document CHEMBL1129801, “3-Benzyloxy-2-phenylpiperidine NK1 antagonists: the influence of alpha methyl substitution” (Bioorg Med Chem Lett, 1997)

Assays:
Substance-P receptor = Substance-P receptor (Rattus norvegicus, UniProt P14600); assay: […]; assay type: functional, microsomes, Liver, Microsome
[1] = Compound was tested in vivo for the ability to antagonise extravasation induced by the administration.; assay type: functional; settings: read-out: ID50 (the source's name)
[2] = (§1) Compound was tested in vivo for the ability to antagonise extravasation induced by the administration at 1 mg/kg po.; assay type: functional
[3] = Compound was tested in vivo for the ability to antagonise extravasation induced by the administration; assay type: functional
[4] = as §1; assay type: functional; remark: listed apart in the source

Sequence of Substance-P receptor (P14600 whole entry): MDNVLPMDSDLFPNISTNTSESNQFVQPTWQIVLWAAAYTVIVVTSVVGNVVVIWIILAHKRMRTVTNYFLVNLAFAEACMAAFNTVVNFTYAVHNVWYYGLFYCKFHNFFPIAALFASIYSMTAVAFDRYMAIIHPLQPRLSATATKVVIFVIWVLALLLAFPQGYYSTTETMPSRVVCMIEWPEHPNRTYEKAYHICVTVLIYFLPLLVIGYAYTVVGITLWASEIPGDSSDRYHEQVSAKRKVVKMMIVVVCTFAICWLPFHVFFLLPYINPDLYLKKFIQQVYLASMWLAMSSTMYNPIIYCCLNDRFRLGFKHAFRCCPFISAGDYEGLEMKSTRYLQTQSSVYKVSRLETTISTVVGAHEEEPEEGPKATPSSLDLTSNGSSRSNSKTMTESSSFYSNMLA

Compound | IC50 (Substance-P receptor) [nM] | further results
c1ccc(CO[C@H]2CCCN[C@H]2c2ccccc2)cc1 | 160 | –
C[C@@H](O[C@H]1CCCN[C@H]1c1ccccc1)c1cc(C(F)(F)F)cc(C(F)(F)F)c1 | 0.15 | –
C[C@@H](O[C@H]1CCCN[C@H]1c1ccccc1)c1cc(Cl)cc(Cl)c1 | 0.91 | –
C[C@@H](O[C@H]1CCCN[C@H]1c1ccccc1)c1ccccc1 | 86 | –
FC(F)(F)c1cc(CO[C@H]2CCCN[C@H]2c2ccccc2)cc(C(F)(F)F)c1 | 0.8 | –
C[C@@H](O[C@H]1CCCN(Cc2n[nH]c(=O)[nH]2)[C@H]1c1ccccc1)c1ccccc1 | 5.9 | –
C[C@H](O[C@H]1CCCN[C@H]1c1ccccc1)c1cc(Cl)cc(Cl)c1 | 85 | –
C[C@H](O[C@H]1CCCN(Cc2n[nH]c(O)n2)[C@H]1c1ccccc1)c1cc(Cl)cc(Cl)c1 | 25 | –
FC(F)(F)c1cc(CO[C@H]2CCCN(Cc3nc[nH]n3)[C@H]2c2ccccc2)cc(C(F)(F)F)c1 | 0.18 | inhibition in vivo at 1 mg/kg [2]: 55%; Inhibition [3]: 0%; ED50 [1]: 0.034 mg/kg

More lines, main results first:

IC50 (Substance-P receptor) [nM] | Compound | further results
0.09 | C[C@@H](O[C@H]1CCCN(Cc2n[nH]c(O)n2)[C@H]1c1ccccc1)c1cc(Cl)cc(Cl)c1 | ED50 [1]: > 0.1 mg/kg
0.16 | C[C@@H](O[C@H]1CCCN(Cc2nc[nH]n2)[C@H]1c1ccccc1)c1cc(C(F)(F)F)cc(C(F)(F)F)c1 | inhibition in vivo at 1 mg/kg [2]: 78%; Inhibition [3]: 12%; ED50 [1]: 0.06 mg/kg
> 10000 | C[C@H](O[C@H]1CCCN[C@H]1c1ccccc1)c1ccccc1 | –
87 | C[C@H](O[C@H]1CCCN[C@H]1c1ccccc1)c1cc(C(F)(F)F)cc(C(F)(F)F)c1 | –
0.16 | C[C@@H](O[C@H]1CCCN(Cc2n[nH]c(O)n2)[C@H]1c1ccccc1)c1cc(C(F)(F)F)cc(C(F)(F)F)c1 | inhibition in vivo at 1 mg/kg [4]: 66%; inhibition in vivo at 1 mg/kg [2]: 97%; ED50 [1]: 0.026 mg/kg
